Assay results published in patent publication US11857519B2, “Compounds and methods for the targeted degradation of enhancer of zeste homolog 2 polypeptide” (Arvinas Operations, Inc., priority 2016, dated 2024).

The compounds below were run against T1, EZH2 (Homo sapiens, UniProt Q15910) (assay: Cellular assay of target protein degradation (VCaP cells, ELISA)). Settings: 4 hours, protein degradation range at indicated concentration (relative to DMSO control).
T1 construct: Protocol of the Cellular Assay of Target Protein Degradation (VCaP Cells, ELISA); endogenous in cells; host or cells: VCaP cells
Assay type: cell-based
Method: Protocol of the Cellular Assay of Target Protein Degradation (VCaP Cells, ELISA).
For detection Cell Signaling PathScan Sandwich ELISA Catalog #12850 Lot 11 was used. VCaP cells were cultured in ATCC DMEM+ATCC FBS and plated 40,000/well 100 μl/well in RPMI P/S with 5% CSS Omega (bovine) serum into a 96 well plate. The cells were grown for a minimum of 3 days, dosed with compounds in 0.1% DMSO (diluted with 5% CSS) and incubated with aspiration for 4 hours. 100 μl of 1× Cell Signaling lysis buffer #9803 (36 mL dH2O+4 mL Cell Signaling lysis buffer) was added. The incubation was placed on cold room shaker for 10 minutes at speed 8-9. 5 μl to 100 μL of Diluent was transferred to ELISA plate (0.15 μg/mL−0.075 μg/mL) and stored at 4° C. overnight on cold room shaker speed 5 (gentle swirl) and then shaken next morning at 37° C. for 30 minutes. The preparation was washed 4×200 μl with ELISA wash buffer and aspirated with eight-channel aspirator. 100 μl/well of target protein detection antibody was added after, which the preparation was covered and shaken at 37° C. for 1 hour. 100 μl TMB was added, and the mixture was shaken for 5 min while under observation. When TMB turned light blue, 100 μl of Stop solution was added, and the mixture was shaken and read at 450 nm. Also read at 562 nm for background subtraction.

T1 sequence (Q15910 whole entry): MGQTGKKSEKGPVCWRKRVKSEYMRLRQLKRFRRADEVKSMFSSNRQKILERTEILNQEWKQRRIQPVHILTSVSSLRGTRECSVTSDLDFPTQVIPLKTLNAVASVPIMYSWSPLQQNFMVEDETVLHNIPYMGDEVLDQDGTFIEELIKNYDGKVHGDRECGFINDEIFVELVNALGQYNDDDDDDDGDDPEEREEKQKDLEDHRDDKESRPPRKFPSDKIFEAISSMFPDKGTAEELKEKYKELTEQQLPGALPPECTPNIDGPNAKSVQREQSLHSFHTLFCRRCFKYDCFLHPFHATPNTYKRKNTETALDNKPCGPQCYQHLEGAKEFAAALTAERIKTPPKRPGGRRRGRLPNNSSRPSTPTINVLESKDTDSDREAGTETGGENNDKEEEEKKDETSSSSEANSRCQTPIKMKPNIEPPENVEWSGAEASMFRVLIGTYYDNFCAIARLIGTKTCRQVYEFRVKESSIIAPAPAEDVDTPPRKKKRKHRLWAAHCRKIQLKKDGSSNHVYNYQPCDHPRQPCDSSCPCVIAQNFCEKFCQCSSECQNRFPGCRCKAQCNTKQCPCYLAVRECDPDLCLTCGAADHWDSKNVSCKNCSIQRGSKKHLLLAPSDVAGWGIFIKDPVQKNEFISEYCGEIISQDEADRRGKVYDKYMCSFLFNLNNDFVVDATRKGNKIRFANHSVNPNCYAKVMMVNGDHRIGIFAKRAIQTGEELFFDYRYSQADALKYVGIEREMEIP
T1 sequence (O75530 whole entry partner): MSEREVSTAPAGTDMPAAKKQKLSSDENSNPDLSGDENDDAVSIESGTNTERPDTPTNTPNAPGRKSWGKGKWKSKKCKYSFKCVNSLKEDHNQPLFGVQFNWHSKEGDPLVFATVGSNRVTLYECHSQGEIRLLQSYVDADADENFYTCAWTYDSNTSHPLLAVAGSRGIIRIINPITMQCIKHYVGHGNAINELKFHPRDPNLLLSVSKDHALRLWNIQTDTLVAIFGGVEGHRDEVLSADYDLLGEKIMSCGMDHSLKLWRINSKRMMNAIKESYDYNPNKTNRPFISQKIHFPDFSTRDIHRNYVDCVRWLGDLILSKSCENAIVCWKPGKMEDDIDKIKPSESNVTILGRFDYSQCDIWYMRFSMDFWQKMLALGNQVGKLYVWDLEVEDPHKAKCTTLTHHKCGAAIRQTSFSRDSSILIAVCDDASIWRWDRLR
T1 sequence (Q15022 whole entry partner): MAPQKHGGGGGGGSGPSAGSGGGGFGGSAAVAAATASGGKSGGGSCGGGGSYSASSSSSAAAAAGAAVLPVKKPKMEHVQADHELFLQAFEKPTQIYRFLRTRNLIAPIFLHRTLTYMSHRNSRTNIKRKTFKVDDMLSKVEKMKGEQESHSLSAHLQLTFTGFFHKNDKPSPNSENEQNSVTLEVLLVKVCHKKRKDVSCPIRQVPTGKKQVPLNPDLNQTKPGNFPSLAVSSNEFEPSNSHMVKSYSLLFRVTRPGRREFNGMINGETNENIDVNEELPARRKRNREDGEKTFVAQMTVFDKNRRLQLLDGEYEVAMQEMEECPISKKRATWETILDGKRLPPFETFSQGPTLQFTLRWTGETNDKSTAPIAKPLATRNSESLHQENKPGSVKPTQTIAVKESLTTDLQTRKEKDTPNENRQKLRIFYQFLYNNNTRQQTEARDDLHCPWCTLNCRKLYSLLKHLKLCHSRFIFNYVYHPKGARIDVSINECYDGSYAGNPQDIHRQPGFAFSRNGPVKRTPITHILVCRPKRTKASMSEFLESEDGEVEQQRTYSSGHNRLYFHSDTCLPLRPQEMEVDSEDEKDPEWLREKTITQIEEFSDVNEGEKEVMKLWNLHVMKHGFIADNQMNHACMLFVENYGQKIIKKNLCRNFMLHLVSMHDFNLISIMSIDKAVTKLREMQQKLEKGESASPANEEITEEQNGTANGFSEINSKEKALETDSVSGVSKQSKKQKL

percent target protein degradation class | SMILES
B (B = degradation between 30% and 60%) | CCN(c1cc(-c2ccc(OCCOCCOCCOCC(=O)N[C@H](C(=O)N3C[C@H](O)C[C@H]3C(=O)NCc3ccc(-c4scnc4C)cc3)C(C)(C)C)cc2)cc(C(=O)NCc2c(C)cc(C)[nH]c2=O)c1C)C1CCOCC1 [Compound 13, (2S,4R)-1-[(2S)-2-{1-[4-(3-{[(4,6-dimethyl-2-oxo-1,2-dihydropyridin-3-yl)methyl]carbamoyl}-5-[ethyl(oxan-4-yl)amino]-4-methylphenyl)phenyl]-1,4,7,10-tetraoxadodecan-12-amido}-3,3-dimethylbutanoyl]-4-hydroxy-N-{[4-(4-methyl-1,3-thiazol-5-yl)phenyl]methyl}pyrrolidine-2-carboxamide]
B (B = degradation between 30% and 60%) | CCN(c1cc(-c2ccc(OCCOCCOCCOCCOCCOCC(=O)N[C@H](C(=O)N3C[C@H](O)C[C@H]3C(=O)NCc3ccc(-c4scnc4C)cc3)C(C)(C)C)cc2)cc(C(=O)NCc2c(C)cc(C)[nH]c2=O)c1C)C1CCOCC1 [Compound 15, (2S,4R)-1-[(2S)-2-{1-[4-(3-{[(4,6-dimethyl-2-oxo-1,2-dihydropyridin-3-yl)methyl]carbamoyl}-5-[ethyl(oxan-4-yl)amino]-4-methylphenyl)phenyl]-1,4,7,10,13,16-hexaoxaoctadecan-18-amido}-3,3-dimethylbutanoyl]-4-hydroxy-N-{[4-(4-methyl-1,3-thiazol-5-yl)phenyl]methyl}pyrrolidine-2-carboxamide]
B (B = degradation between 30% and 60%) | CCN(c1cc(-c2ccc(OCCOCCOCCOCCOCCOCCOCC(=O)N[C@H](C(=O)N3C[C@H](O)C[C@H]3C(=O)NCc3ccc(-c4scnc4C)cc3)C(C)(C)C)cc2)cc(C(=O)NCc2c(C)cc(C)[nH]c2=O)c1C)C1CCOCC1 [Compound 16, (2S,4R)-1-[(2S)-2-{1-[4-(3-{[(4,6-dimethyl-2-oxo-1,2-dihydropyridin-3-yl)methyl]carbamoyl}-5-[ethyl(oxan-4-yl)amino]-4-methylphenyl)phenyl]-1,4,7,10,13,16,19-heptaoxahenicosan-21-amido}-3,3-dimethylbutanoyl]-4-hydroxy-N-{[4-(4-methyl-1,3-thiazol-5-yl)phenyl]methyl}pyrrolidine-2-carboxamide]
B (B = degradation between 30% and 60%) | CCN(c1cc(-c2ccc(OCCOCCOCCOCCNc3cccc4c3C(=O)N(C3CCC(=O)NC3=O)C4=O)cc2)cc(C(=O)NCc2c(C)cc(C)[nH]c2=O)c1C)C1CCOCC1 (stereo not shown) [Compound 17, N-[(4,6-dimethyl-2-oxo-1,2-dihydropyridin-3-yl)methyl]-5-[4-({1-[2-(2,6-dioxopiperidin-3-yl)-1,3-dioxo-2,3-dihydro-1H-isoindol-4-yl]-4,7,10-trioxa-1-azadodecan-12-yl}oxy)phenyl]-3-[ethyl(oxan-4-yl)amino]-2-methylbenzamide]
B (B = degradation between 30% and 60%) | CCN(c1cc(-c2ccc(OCCOCCOCCOCCOCCNc3cccc4c3C(=O)N(C3CCC(=O)NC3=O)C4=O)cc2)cc(C(=O)NCc2c(C)cc(C)[nH]c2=O)c1C)C1CCOCC1 (stereo not shown) [Compound 18, N-[(4,6-dimethyl-2-oxo-1,2-dihydropyridin-3-yl)methyl]-5-[4-({1-[2-(2,6-dioxopiperidin-3-yl)-1,3-dioxo-2,3-dihydro-1H-isoindol-4-yl]-4,7,10,13-tetraoxa-1-azapentadecan-15-yl}oxy)phenyl]-3-[ethyl(oxan-4-yl)amino]-2-methylbenzamide]
B (B = degradation between 30% and 60%) | CCN(c1cc(-c2ccc(OCCOCCOCCOCCOCCOCCNc3cccc4c3C(=O)N(C3CCC(=O)NC3=O)C4=O)cc2)cc(C(=O)NCc2c(C)cc(C)[nH]c2=O)c1C)C1CCOCC1 (stereo not shown) [Compound 19, N-[(4,6-dimethyl-2-oxo-1,2-dihydropyridin-3-yl)methyl]-5-[4-({1-[2-(2,6-dioxopiperidin-3-yl)-1,3-dioxo-2,3-dihydro-1H-isoindol-4-yl]-4,7,10,13,16-pentaoxa-1-azaoctadecan-18-yl}oxy)phenyl]-3-[ethyl(oxan-4-yl)amino]-2-methylbenzamide]
B (B = degradation between 30% and 60%) | CCN(c1cc(-c2ccc(OCCOCCOCCOCCOCCOCCOCCNc3cccc4c3C(=O)N(C3CCC(=O)NC3=O)C4=O)cc2)cc(C(=O)NCc2c(C)cc(C)[nH]c2=O)c1C)C1CCOCC1 (stereo not shown) [Compound 20, N-[(4,6-dimethyl-2-oxo-1,2-dihydropyridin-3-yl)methyl]-5-[4-({1-[2-(2,6-dioxopiperidin-3-yl)-1,3-dioxo-2,3-dihydro-1H-isoindol-4-yl]-4,7,10,13,16,19-hexaoxa-1-azahenicosan-21-yl}oxy)phenyl]-3-[ethyl(oxan-4-yl)amino]-2-methylbenzamide]
B (B = degradation between 30% and 60%) | CCN(c1cc(-c2cccc(OCCOCCOCCOCCOCCOCCNc3cccc4c3C(=O)N(C3CCC(=O)NC3=O)C4=O)c2)cc(C(=O)NCc2c(C)cc(C)[nH]c2=O)c1C)C1CCOCC1 (stereo not shown) [Compound 21, N-[(4,6-dimethyl-2-oxo-1,2-dihydropyridin-3-yl)methyl]-5-[3-({1-[2-(2,6-dioxopiperidin-3-yl)-1,3-dioxo-2,3-dihydro-1H-isoindol-4-yl]-4,7,10,13,16-pentaoxa-1-azaoctadecan-18-yl}oxy)phenyl]-3-[ethyl(oxan-4-yl)amino]-2-methylbenzamide]
B (B = degradation between 30% and 60%) | CCN(c1cc(-c2ccc(OCCOCCOCCOCCOCCOCCOCCOCCNc3cccc4c3C(=O)N(C3CCC(=O)NC3=O)C4=O)cc2)cc(C(=O)NCc2c(C)cc(C)[nH]c2=O)c1C)C1CCOCC1 (stereo not shown) [Compound 22, N-[(4,6-dimethyl-2-oxo-1,2-dihydropyridin-3-yl)methyl]-5-[4-({1-[2-(2,6-dioxopiperidin-3-yl)-1,3-dioxo-2,3-dihydro-1H-isoindol-4-yl]-4,7,10,13,16,19,22-heptaoxa-1-azatetracosan-24-yl}oxy)phenyl]-3-[ethyl(oxan-4-yl)amino]-2-methylbenzamide]

SMILES | percent target protein degradation class
Cc1cc(C)c(CNC(=O)c2c(C)n(C(C)C3CCN(C(=O)COCCOCCOCC(=O)N[C@H](C(=O)N4C[C@H](O)C[C@H]4C(=O)NCc4ccc(-c5scnc5C)cc4)C(C)(C)C)CC3)c3ccccc23)c(=O)[nH]1 (stereo partly drawn) [Compound 9, N-[(4,6-dimethyl-2-oxo-1,2-dihydropyridin-3-yl)methyl]-1-{1-[1-(2-{2-[2-({[(2S)-1-[(2S,4R)-4-hydroxy-2-({[4-(4-methyl-1,3-thiazol-5-yl)phenyl]methyl}carbamoyl)pyrrolidin-1-yl]-3,3-dimethyl-1-oxobutan-2-yl]carbamoyl}methoxy)ethoxy]ethoxy}acetyl)piperidin-4-yl]ethyl}-2-methyl-1H-indole-3-carboxamide] | B (B = degradation between 30% and 60%)
Cc1cc(C)c(CNC(=O)c2c(C)n(C(C)C3CCN(C(=O)COCCOCCOCCOCCNc4cccc5c4C(=O)N(C4CCC(=O)NC4=O)C5=O)CC3)c3ccccc23)c(=O)[nH]1 (stereo not shown) [Compound 10, N-[(4,6-dimethyl-2-oxo-1,2-dihydropyridin-3-yl)methyl]-1-[1-(1-{1-[2-(2,6-dioxopiperidin-3-yl)-1,3-dioxo-2,3-dihydro-1H-isoindol-4-yl]-4,7,10,13-tetraoxa-1-azapentadecanoyl}piperidin-4-yl)ethyl]-2-methyl-1H-indole-3-carboxamide] | B (B = degradation between 30% and 60%)
Cc1cc(C)c(CNC(=O)c2c(C)n(C(C)C3CCN(C(=O)COCCOCCOCCOCCOCC(=O)N[C@H](C(=O)N4C[C@H](O)C[C@H]4C(=O)NCc4ccc(-c5scnc5C)cc4)C(C)(C)C)CC3)c3ccccc23)c(=O)[nH]1 (stereo partly drawn) [Compound 11, N-[(4,6-dimethyl-2-oxo-1,2-dihydropyridin-3-yl)methyl]-1-{1-[1-(1-{[(2S)-1-[(2S,4R)-4-hydroxy-2-({[4-(4-methyl-1,3-thiazol-5-yl)phenyl]methyl}carbamoyl)pyrrolidin-1-yl]-3,3-dimethyl-1-oxobutan-2-yl]carbamoyl}-2,5,8,11,14-pentaoxahexadecanoyl)piperidin-4-yl]ethyl}-2-methyl-1H-indole-3-carboxamide] | B (B = degradation between 30% and 60%)
Cc1cc(C)c(CNC(=O)c2c(C)n(C(C)C3CCN(C(=O)COCCOCCOCCOCCOCCNc4cccc5c4C(=O)N(C4CCC(=O)NC4=O)C5=O)CC3)c3ccccc23)c(=O)[nH]1 (stereo not shown) [Compound 12, N-[(4,6-dimethyl-2-oxo-1,2-dihydropyridin-3-yl)methyl]-1-[1-(1-{1-[2-(2,6-dioxopiperidin-3-yl)-1,3-dioxo-2,3-dihydro-1H-isoindol-4-yl]-4,7,10,13,16-pentaoxa-1-azaoctadecanoyl}piperidin-4-yl)ethyl]-2-methyl-1H-indole-3-carboxamide] | B (B = degradation between 30% and 60%)
